Test results from PMC10224356, “Trisubstituted 1,3,5-Triazines as Histamine H4 Receptor Antagonists with Promising Activity In Vivo” (Molecules, 2023).

Experiments:
[1] = PAMPA assay (blood-brain barrier permeability); type: in vitro ADME
Protocol: This test is a popular method for estimating the possibility of crossing BBB through passive transport. […] Caffeine was used as a standard well-permeable compound.
The Gentest^TM PAMPA Plate System, purchased from Corning (Tewksbury, MA, USA), was used for permeability evaluation. Caffeine (a reference) and the compound tested were dissolved in DMSO (10 mM stocks) and after dilution to 200 μM in PBS (pH 7.4), added to donor wells. Then, after incubation for 5 h at room temperature, concentrations of tested compounds in donor and acceptor wells were estimated by the mass spectra (LC/MS) method as described previously. The UPLC/MS Waters […] TQD system with the TQ Detector (Waters, Milford, CT, USA) was used for this detection. The assay was performed in triplicate. The permeability value (Pe) was calculated using the formula described by Chen et al..

SH-SY5Y cells = experiment: Toxicity evaluation, MTS assay in SH-SY5Y cells; type: cell-based, human
Source text: Toxic substances can affect the cells. Early in the research process, it is crucial to determine whether obtained compounds can induce such effects. From our series of compounds, compound 6 was selected for toxicity evaluation. MTS assay was used to test toxicity on HepG2 and SH-SY5Y cell lines. HepG2 cells closely reflect the human liver cell model whereas SH-SY5Y neuroblastoma cells are used in models of neurodegenerative diseases (especially Parkinson’s disease) to study the cellular and molecular factors that lead to these disorders.
Compound 6, at concentrations ranging from 0.78 µM to 50 µM, was incubated with the respective cell lines for 48 h (HepG2) or 24 h (SH-SY5Y). Then, MTS reagent was added and absorbances at 490 nm were read after 1 h. […] The reduction in SH-SY5Y cell viability (Figure 6B) of an average of 4–12% was observed over the range of concentrations.
The hepatoma cell line HepG2 (ATCC® HB-8065TM) and SH-SY5Y CRL-2266 neuroblastoma cell line were used to evaluate the toxicity of tested compounds. Tests were conducted as described previously. CellTiter 96® Aqueous Non-Radioactive Cell Proliferation Assay was purchased from Promega (Madison, WI, USA). Compounds were tested at 7 concentrations (0.78, 1.56, 3.125, 6.25, 12.5, 25 and 50 µM). Cell viability was determined after incubation with compounds for […]. Each experiment was performed twice in triplicate.

hH4R = hH4R (Homo sapiens, UniProt Q9H3N8); experiment: cAMP accumulation assay (LANCE Ultra cAMP, CHO-K1 cells stably expressing hH4R); type: cell-based; set-up: expressed in transfected cells; conditions: antagonist mode

- Mass Retention (R) ([1]; 200 µM, 5 h): 3.15%
- Papp at 5 h, 200 µM ([1]; PBS pH 7.4, permeable if Pe > 1.5 × 10^−6 cm/s, read-out: Pe (permeability coefficient) ± SD): 12.3 ± 0.31 ×10⁻⁶ cm/s
- cAMP hH4R % of max. Antagonist Activity at 10 µM (hH4R): 100%
Structure (SMILES): CN1CCN(c2nc(N)nc(CC3CCCC3)n2)CC1 [Compound 6, 4-(Cyclopentylmethyl)-6-(4-methylpiperazin-1-yl)-1,3,5-triazin-2-amine]
- Reduction in SH-SY5Y cell viability, average over the range of concentrations (SH-SY5Y cells; 0.78–50 µM): 4–12%
- Toxicity in SH-SY5Y cells (MTS) (SH-SY5Y cells; 0.78–50 µM, 24 h incubation): no toxicity up to 50 µM
- Reduction of SH-SY5Y cell viability (SH-SY5Y cells; even at the highest concentration (50 µM)): ≤ 50%
